{"source": "patent US11998536B2", "about": "“Decreasing expression level of proteasome subunit genes by treating a human subject with a nitroxide” (priority 2018, dated 2024)", "key": {"[1]": {"tested_on": "genes associated with proteasome activity", "test": "Gene expression in Tempol-fed mice, chip-based microarray (summary in text)", "type": "in vivo", "settings": "Tempol 5 mg/g of food from 14 to 31 months; cardiac tissue; vs mice on same food without Tempol", "protocol": "(§1) To assess the effects of Tempol on gene expression, Tempol was administered to experimental mice at a dose of 5 mg/g of food from 14 months to 31 months after birth. Mice receiving the same food without the addition of Tempol were used as a negative control. At the age of 31 months, the experimental animals were sacrificed and the hearts were surgically removed. The expression of a broad spectrum of genes in the cardiac tissue was assessed using chip-based microarray technology. Such chips are well known in the art and are widely used to assess gene expression."}, "Psmc2": {"tested_on": "Psmc2", "test": "Gene expression in Tempol-fed mice, chip-based microarray", "type": "in vivo", "settings": "white adipose tissue per table title (cardiac tissue per text)", "protocol": "as §1"}, "Psmb5": {"tested_on": "Psmb5", "test": "Gene expression in Tempol-fed mice, chip-based microarray", "type": "in vivo", "settings": "white adipose tissue per table title (cardiac tissue per text)", "protocol": "as §1"}, "Psmc3": {"tested_on": "Psmc3", "test": "Gene expression in Tempol-fed mice, chip-based microarray", "type": "in vivo", "settings": "white adipose tissue per table title (cardiac tissue per text)", "protocol": "as §1"}, "Psma7": {"tested_on": "Psma7", "test": "Gene expression in Tempol-fed mice, chip-based microarray", "type": "in vivo", "settings": "white adipose tissue per table title (cardiac tissue per text)", "protocol": "as §1"}, "Psmd12": {"tested_on": "Psmd12", "test": "Gene expression in Tempol-fed mice, chip-based microarray", "type": "in vivo", "settings": "white adipose tissue per table title (cardiac tissue per text)", "protocol": "as §1"}, "Psmd4": {"tested_on": "Psmd4", "test": "Gene expression in Tempol-fed mice, chip-based microarray", "type": "in vivo", "settings": "white adipose tissue per table title (cardiac tissue per text)", "protocol": "as §1"}, "Psma6": {"tested_on": "Psma6", "test": "Gene expression in Tempol-fed mice, chip-based microarray", "type": "in vivo", "settings": "white adipose tissue per table title (cardiac tissue per text)", "protocol": "as §1"}, "Psme4": {"tested_on": "Psme4", "test": "Gene expression in Tempol-fed mice, chip-based microarray", "type": "in vivo", "settings": "white adipose tissue per table title (cardiac tissue per text)", "protocol": "as §1"}, "Psmd3": {"tested_on": "Psmd3", "test": "Gene expression in Tempol-fed mice, chip-based microarray", "type": "in vivo", "settings": "white adipose tissue per table title (cardiac tissue per text)", "protocol": "as §1"}, "Psmc6": {"tested_on": "Psmc6", "test": "Gene expression in Tempol-fed mice, chip-based microarray", "type": "in vivo", "settings": "white adipose tissue per table title (cardiac tissue per text)", "protocol": "as §1"}, "Psmb4": {"tested_on": "Psmb4", "test": "Gene expression in Tempol-fed mice, chip-based microarray", "type": "in vivo", "settings": "white adipose tissue per table title (cardiac tissue per text)", "protocol": "as §1"}, "Psmd9": {"tested_on": "Psmd9", "test": "Gene expression in Tempol-fed mice, chip-based microarray", "type": "in vivo", "settings": "white adipose tissue per table title (cardiac tissue per text)", "protocol": "as §1"}, "Psmd14": {"tested_on": "Psmd14", "test": "Gene expression in Tempol-fed mice, chip-based microarray", "type": "in vivo", "settings": "white adipose tissue per table title (cardiac tissue per text)", "protocol": "as §1"}, "Psmc4": {"tested_on": "Psmc4", "test": "Gene expression in Tempol-fed mice, chip-based microarray", "type": "in vivo", "settings": "white adipose tissue per table title (cardiac tissue per text)", "protocol": "as §1"}, "Psma2": {"tested_on": "Psma2", "test": "Gene expression in Tempol-fed mice, chip-based microarray", "type": "in vivo", "settings": "white adipose tissue per table title (cardiac tissue per text)", "protocol": "as §1"}, "Psmd13": {"tested_on": "Psmd13", "test": "Gene expression in Tempol-fed mice, chip-based microarray", "type": "in vivo", "settings": "white adipose tissue per table title (cardiac tissue per text)", "protocol": "as §1"}, "[2]": {"molecular_target": "β2 sites of the proteasome (Homo sapiens, UniProt Q99436)", "settings": "under normal conditions; cited from earlier work"}, "[3]": {"molecular_target": "β1 (caspase-like) sites of the proteasome (Homo sapiens, UniProt P28072)", "settings": "relative to β5/β5i sites; cited from earlier work"}, "[4]": {"tested_on": "β5/β5i sites (chymotrypsin-like sites) of the proteasome", "settings": "cited from earlier work"}, "[5]": {"settings": "Tempol 5 mg/g of food from 14 to 31 months, microarray"}, "[6]": {"settings": "Tempol-treated vs control mice, 5 mg/g of food from 14 to 31 months"}}}
{"smiles": "CC1(C)CC(O)CC(C)(C)N1[O]", "note": "[Tempol, 4-hydroxy-2,2,6,6-tetramethylpiperidine-1-oxyl]", "values": [{"measurement": "Change in expression of the 16 listed proteasome genes", "setting": "[1]", "value": "statistically significant decrease in expression"}, {"measurement": "Psmc2 expression, Tempol-treated mice", "setting": "Psmc2; [5]", "value": 2176}, {"measurement": "Psmc2 fold change", "setting": "Psmc2; [6]", "value": "−1.23"}, {"measurement": "Psmb5 expression, Tempol-treated mice", "setting": "Psmb5; [5]", "value": 1754}, {"measurement": "Psmb5 fold change", "setting": "Psmb5; [6]", "value": "−1.15"}, {"measurement": "Psmc3 expression, Tempol-treated mice", "setting": "Psmc3; [5]", "value": 1810}, {"measurement": "Psmc3 fold change", "setting": "Psmc3; [6]", "value": "−1.23"}, {"measurement": "Psma7 expression, Tempol-treated mice", "setting": "Psma7; [5]", "value": 1513}, {"measurement": "Psma7 fold change", "setting": "Psma7; [6]", "value": "−1.23"}, {"measurement": "Psmd12 expression, Tempol-treated mice", "setting": "Psmd12; [5]", "value": 1098}, {"measurement": "Psmd12 fold change", "setting": "Psmd12; [6]", "value": "−1.20"}, {"measurement": "Psmd4 expression, Tempol-treated mice", "setting": "Psmd4; [5]", "value": 2610}, {"measurement": "Psmd4 fold change", "setting": "Psmd4; [6]", "value": "−1.20"}, {"measurement": "Psma6 expression, Tempol-treated mice", "setting": "Psma6; [5]", "value": 3467}, {"measurement": "Psma6 fold change", "setting": "Psma6; [6]", "value": "−1.09"}, {"measurement": "Psme4 expression, Tempol-treated mice", "setting": "Psme4; [5]", "value": 1086}, {"measurement": "Psme4 fold change", "setting": "Psme4; [6]", "value": "−1.16"}, {"measurement": "Psmd3 expression, Tempol-treated mice", "setting": "Psmd3; [5]", "value": 1017}, {"measurement": "Psmd3 fold change", "setting": "Psmd3; [6]", "value": "−1.12"}, {"measurement": "Psmc6 expression, Tempol-treated mice", "setting": "Psmc6; [5]", "value": 1449}, {"measurement": "Psmc6 fold change", "setting": "Psmc6; [6]", "value": "−1.16"}, {"measurement": "Psmb4 expression, Tempol-treated mice", "setting": "Psmb4; [5]", "value": 3614}, {"measurement": "Psmb4 fold change", "setting": "Psmb4; [6]", "value": "−1.15"}, {"measurement": "Psmd9 expression, Tempol-treated mice", "setting": "Psmd9; [5]", "value": 310}, {"measurement": "Psmd9 fold change", "setting": "Psmd9; [6]", "value": "−1.18"}, {"measurement": "Psmd14 expression, Tempol-treated mice", "setting": "Psmd14; [5]", "value": 2745}, {"measurement": "Psmd14 fold change", "setting": "Psmd14; [6]", "value": "−1.20"}, {"measurement": "Psmc4 expression, Tempol-treated mice", "setting": "Psmc4; [5]", "value": 1101}, {"measurement": "Psmc4 fold change", "setting": "Psmc4; [6]", "value": "−1.52"}, {"measurement": "Psma2 expression, Tempol-treated mice", "setting": "Psma2; [5]", "value": 3123}, {"measurement": "Psma2 fold change", "setting": "Psma2; [6]", "value": "−1.20"}, {"measurement": "Psmd13 expression, Tempol-treated mice", "setting": "Psmd13; [5]", "value": 1047}, {"measurement": "Psmd13 fold change", "setting": "Psmd13; [6]", "value": "−1.23"}]}
{"smiles": "CC(C)C[C@H](NC(=O)[C@H](Cc1ccccc1)NC(=O)c1cnccn1)B(O)O", "note": "[bortezomib]", "values": [{"measurement": "Targeting of β2 sites", "setting": "[2]", "value": "not appreciably targeted"}, {"measurement": "Affinity for β1 sites, lower than for β5/β5i sites", "setting": "[3]", "value": "approximately 10 fold"}, {"measurement": "Inhibition of β5/β5i sites", "setting": "[4]", "value": "high potency"}]}
